Test results published in patent US6906205B2, “Spiro and dispiro 1,2,4-trioxolane antimalarials” (Medicines for Malaria Venture MMV, priority 2002, dated 2005).
≈ marks a conversion by molar mass, not a printed value.

Key:
[1] = tested on: ANKA strain of P. berghei; assay: single dose STI in vivo screen in infected mice; set-up: species or system Plasmodium berghei; settings: for Activity (%) po / Activity (%) sc / Activity (%) SSVpo: percent reduction in parasitemia day 3 post-infection, mice; for Activity (%) po / Survival (days) po: single 10 mg/kg po in 3% ethanol and 7% Tween 80; for Activity (%) sc / Survival (days) sc: single 10 mg/kg sc in 3% ethanol and 7% Tween 80; for Activity (%) SSVpo: single po dose in standard suspending vehicle (SSV); for Survival (days) po / Survival (days) sc / Survival (days) SSVpo: untreated control 5.6 ± 0.3; for Survival (days) SSVpo: single po dose in SSV
Method in brief: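 Groups of 3-5 Moro SPF or NMRI mice infected with the ANKA strain of P. berghei received a single dose of trioxolane on day one post-infection. The compound was given in 3% ethanol and 7% Tween 80 or in SSV (0.5% w/v CMC, 0.5% v/v benzyl alcohol, 0.4% v/v Tween 80, 0.9% w/v sodium chloride in water). Antimalarial activity was scored as percent reduction in parasitemia on day three and as survival time versus untreated controls. Survival to day 30 counted as cure.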

[2] = tested on: Schistosoma mansoni 21-day-old schistosomules; assay: effect on 21-day-old schistosomules in mice; format: in vivo; settings: single 200 mg/kg per os, female mice
Description: All groups were killed 4 weeks after treatment and the liver and intestine were removed and separated. The liver and intestine were compressed and alive male and female worms could be seen and counted. The effect of the compounds was evaluated by mean total and female worm burden.

[3] = tested on: Schistosoma mansoni adult schistosomes (49-day-old); assay: effect on adult schistosomes (49-day-old) in mice; format: in vivo; settings: single 400 mg/kg per os
Description: Mice were infected with 100 Schistosoma mansoni cercariae […]. Each group was treated per os with OZ compounds at single doses of 200, 400, and 600 mg/kg. […] All groups were killed 4 weeks after treatment and the liver and intestine were removed and separated. The liver and intestine were compressed and alive male and female worms could be seen and counted.

[4] = tested on: ANKA strain of Plasmodium berghei; assay: single dose ED50/ED90/ED99 determinations in infected mice; format: in vivo; settings: single dose po in SSV, mice, percent reduction in parasitemia on day three post-infection
Description: In the single dose ED50/ED90/ED99 determinations, Moro SPF or NMRI mice (group of three) infected with the ANKA strain of Plasmodium berghei were treated on day one post-infection. […] The SSV consists of 0.5% w/v CMC, 0.5% v/v benzyl alcohol, 0.4% v/v Tween 80, and 0.9% w/v sodium chloride in water. Antimalarial activity was measured by percent reduction in parasitemia on day three post-infection. The ED50/ED90 values were calculated by nonlinear fitting.

[5] = tested on: P. falciparum K1 strain (Thailand resistant to chloroquine); assay: semiautomated microdilution assay, [3H]-hypoxanthine incorporation, K1 strain; format: cell-based, Plasmodium falciparum; settings: K1 strain, 72 h incubation; for IC50: Plasmodium falciparum, read-out: IC50 (ng/ml) K1
Method in brief: (§1)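 Intraerythrocytic stages from unsynchronised stock cultures are exposed to test compounds in a semiautomated microdilution format, and fifty percent inhibitory concentrations are then fitted by logit regression.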

[6] = tested on: P. falciparum NF54 strain (sensitive to standard antimalarials); assay: semiautomated microdilution assay, [3H]-hypoxanthine incorporation, NF54 strain; format: cell-based, Plasmodium falciparum; settings: NF54 strain, 72 h incubation; for IC50: Plasmodium falciparum, read-out: IC50 (ng/ml) NF54
Method in brief: as §1

Compound	Activity (%) po [1] [%]	Activity (%) sc [1] [%]	Activity (%) SSVpo [1] [%]	Survival (days) po [1] [days]	Survival (days) sc [1] [days]	Survival (days) SSVpo [1] [days]	ED90 [4] [mg/kg]	ED99 [4] [mg/kg]	IC50 (ng/ml) K1 [5]	IC50 (ng/ml) NF54 [6]	ED50 [4] [mg/kg]	also measured
CC1(C)COC2(CCC3(CC2)OOC2(O3)C3CC4CC(C3)CC2C4)OC1 (stereo not drawn) [OZ11]	99.99	100	98	11.4	18	7.4	6.2	8.2	–	–	–	% reduction of schistosomule growth at day 21 after per os application of 200 mg/kg, FWR (%) [2]: 84%; % reduction of schistosomule growth at day 21 after per os application of 200 mg/kg, TWR (%) [2]: 85%; % reduction of adult worms growth at day 49 after per os application of 400 mg/kg, TWR (%) [3]: 16%; adult worms at day 49, per os 400 mg/kg, DEAD WORM (%) [3]: 4%
c1ccc(C[C@H]2CC[C@]3(CC2)OOC2(O3)C3CC4CC(C3)CC2C4)cc1 (stereo partly drawn) [OZ156]	99.98	99.98	98.8	17.0	19.7	10.3	2.6	4.7	2.1/2.1 ng/ml	2.1/2.1 ng/ml	1.3	% reduction of schistosomule growth at day 21 after per os application of 200 mg/kg, FWR (%) [2]: 72%; % reduction of schistosomule growth at day 21 after per os application of 200 mg/kg, TWR (%) [2]: 75%; % reduction of adult worms growth at day 49 after per os application of 400 mg/kg, TWR (%) [3]: 0%; adult worms at day 49, per os 400 mg/kg, DEAD WORM (%) [3]: 6%
NC[C@H]1CC[C@]2(CC1)OOC1(O2)C2CC3CC(C2)CC1C3 (stereo partly drawn) [OZ181]	–	100	99.91	–	–	10.0	1.8	4.0	–	–	0.63	Activity (%) po ([1]; 10 mg/kg): 99.98%; Survival (days) po ([1]; 10 mg/kg): 9.0 days; Survival (days) sc ([1]; 10 mg/kg): 11.0 days
c1ncn(C[C@H]2CC[C@]3(CC2)OOC2(O3)C3CC4CC(C3)CC2C4)n1 (stereo partly drawn) [OZ235]	99.92	97	99.97	8.7	8.0	9.0	7.1	11	1.0 ng/mL (≈ 2.89 nM)	2.0 ng/mL (≈ 5.79 nM)	4.0	–
O=C(NO)[C@H]1CC[C@@]2(CC1)OOC1(O2)C2CC3CC(C2)CC1C3 (stereo partly drawn) [OZ127]	95	97	98	7.0	7.7	7.7	7.6	19	0.61 ng/mL (≈ 1.89 nM)	1.3 ng/mL (≈ 4.02 nM)	2.5	–
c1ncn(C[C@H]2CC[C@]3(CC2)OOC2(O3)C3CC4CC(C3)CC2C4)n1 (stereo partly drawn) [OZ177]	–	–	–	–	–	12.7	3.7	5.8	–	–	–	IC50 [5]: 0.9 ng/mL (≈ 2.61 nM); IC50 [6]: 1.7 ng/mL (≈ 4.92 nM)
c1ccc(C2CCC3(CC2)OOC2(O3)C3CC4CC(C3)CC2C4)cc1 (stereo not drawn) [OZ27]	99.97	99.92	96	12.6	17.1	8.0	5.7	9.9	–	–	–	IC50 [5]: 2.2 ng/mL (≈ 6.46 nM); IC50 [6]: 4.8 ng/mL (≈ 14.1 nM)
CN1CCN(C(=O)C[C@H]2CC[C@]3(CC2)OOC2(O3)C3CC4CC(C3)CC2C4)CC1 (stereo partly drawn) [OZ227]	99.68	99.84	99.90	8.3	10.7	9.3	4.0	6.2	0.20/0.20 ng/ml	0.20/0.20 ng/ml	2.3	–
c1cn(CC[C@H]2CC[C@]3(CC2)OOC2(O3)C3CC4CC(C3)CC2C4)cn1 (stereo partly drawn) [OZ219]	99.89	99.91	99.82	8.7	9.3	8.0	3.0	5.2	0.85 ng/mL (≈ 2.37 nM)	1.6 ng/mL (≈ 4.46 nM)	1.6	–
c1cn(C[C@H]2CC[C@]3(CC2)OOC2(O3)C3CC4CC(C3)CC2C4)cn1 (stereo partly drawn) [OZ179]	–	–	99.78	–	–	10.3	3.3	6.6	1.3 ng/mL (≈ 3.77 nM)	1.1 ng/mL (≈ 3.19 nM)	1.4	Activity (%) po ([1]; 10 mg/kg): 99.91%; Activity (%) sc ([1]; 10 mg/kg): 99.91%; Survival (days) po ([1]; 10 mg/kg): 11.3 days; Survival (days) sc ([1]; 10 mg/kg): 11.3 days
C[C@H]1[C@@H](OCc2ccc(C(=O)O)cc2)O[C@@H]2O[C@@]3(C)CC[C@H]4[C@H](C)CC[C@@H]1[C@@]24OO3 [Artelinate]	–	–	–	–	–	–	10	18	–	–	4.8	–
COCC(=O)N1CCC2(CC1)OOC1(O2)C2CC3CC(C2)CC1C3 (stereo not drawn) [OZ113]	92	89	96	7.3	7.3	8.0	9.0	19	0.95 ng/mL (≈ 2.82 nM)	0.20 ng/mL (≈ 0.593 nM)	3.6	–
